# Measurements reported in patent US20110152166A1, “METHOD OF MODULATION OF PROTEIN PHOSPHORYLATION-DEPENDENT CONFORMATIONAL TRANSITIONS WITH LOW MOLECULAR WEIGHT COMPOUNDS” (priority 2006, published 2011).
# Numbering of substitutions follows the chain as printed. Read-outs that look alike come from different tables or passages of the source. Ends that are not written are not given here.
# What was measured:
# Assay in all cases: PDK1 activity assay with T308tide
# Assay type in all cases: biochemical
# GST-PDK1 [Gln150Glu] = target: T1, GST-PDK1 [Gln150Glu] (Homo sapiens, UniProt O15530, Q150E)
# T1 construct: different protein constructs, comprising the full length protein or the catalytic domain alone; made in house; host or cells: HEK293 cells (pEBG-2T-PDK1 mutant)
# T1 sequence (O15530 1-556 Q150E): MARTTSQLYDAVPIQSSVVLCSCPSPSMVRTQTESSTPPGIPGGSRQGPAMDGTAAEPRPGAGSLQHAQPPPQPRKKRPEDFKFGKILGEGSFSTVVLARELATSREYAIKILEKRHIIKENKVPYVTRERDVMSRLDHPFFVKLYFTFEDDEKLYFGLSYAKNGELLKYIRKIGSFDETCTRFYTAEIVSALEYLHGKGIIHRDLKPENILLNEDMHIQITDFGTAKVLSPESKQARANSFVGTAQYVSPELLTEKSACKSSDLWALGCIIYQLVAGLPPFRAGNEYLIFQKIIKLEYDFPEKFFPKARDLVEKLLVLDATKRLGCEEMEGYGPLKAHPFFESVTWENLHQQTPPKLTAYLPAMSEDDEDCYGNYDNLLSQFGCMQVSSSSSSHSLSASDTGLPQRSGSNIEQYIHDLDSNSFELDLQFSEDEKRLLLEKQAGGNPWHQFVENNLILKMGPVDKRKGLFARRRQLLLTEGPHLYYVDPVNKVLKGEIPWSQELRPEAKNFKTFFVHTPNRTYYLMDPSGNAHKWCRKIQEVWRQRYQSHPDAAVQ
# GST-PDK1 [Phe157Met] = target: T2, GST-PDK1 [Phe157Met] (Homo sapiens, UniProt O15530, F157M)
# T2 construct: different protein constructs, comprising the full length protein or the catalytic domain alone; made in house; host or cells: HEK293 cells (pEBG-2T-PDK1 mutant)
# T2 sequence (O15530 1-556 F157M): T1 sequence (O15530 1-556 Q150E) with E150Q, F157M
# GST-PDK1 [Leu155Ser] = target: T3, GST-PDK1 [Leu155Ser] (Homo sapiens, UniProt O15530, L155S); conditions: for AC50: GST-PDK1 [Leu155Ser]
# T3 construct: different protein constructs, comprising the full length protein or the catalytic domain alone; made in house; host or cells: HEK293 cells (pEBG-2T-PDK1 mutant)
# T3 sequence (O15530 1-556 L155S): T1 sequence (O15530 1-556 Q150E) with E150Q, L155S
AC50 (GST-PDK1 [Gln150Glu]),AC50 (GST-PDK1 [Phe157Met]) [µM],Max. activity (GST-PDK1 [Phe157Met]) [U/mg],AC50 (GST-PDK1 [Leu155Ser]),Max. activity (GST-PDK1 [Gln150Glu]) [U/mg],AC50 (GST-PDK1 [Gln150Glu]; read-out: AC50) [µM],"activation of PDK1 mutant (in words) (GST-PDK1 [Leu155Ser]; Leu155 replaced with Ser, constitutively active)",Molecule
No Effect,1.52 ± 0.59,1.7 ± 0.24,No Effect,–,–,–,"REPRILSEEEQEMFRDFDYIADWC [PIFtide, reference compound]"
–,140 ± 100,0.9 ± 0.3,No Effect,2.5 ± 0.7,> 200,could not be further activated,O=C(O)CSC(CC(=O)c1ccc(Cl)cc1)c1ccccc1 (stereo not shown) [Compound 1]
